Literature values as cited in patent US20210315865A1 (Biohaven Therapeutics Ltd., priority 2018, published 2021).

Details: taken with meals

Nc1nc2ccc(OC(F)(F)F)cc2s1 [riluzole, 6-(trifluoromethoxy)benzothiazol-2-amine]
food effect on exposure: reduced exposure when taken with meals
